From patent US20080057529A1, “Method for Identifying Histone Deacetylase Inhibitors” (priority 2003, published 2008)

Key:
Format in all cases: cell-based, human
[1] = tested on: p21 minimal promoter; assay: Transient transfection of HeLa cells with p21m-SEAP reporter plasmid, SEAP activity; settings: Table 5, Apicidin 1 μM, TSA 300 nM
Method: To determine whether the p21 minimal promoter was responsive to HDAC inhibitors, a reporter plasmid containing the secreted alkaline phosphatase gene (SEAP) operably linked to the p21 minimal promoter (−182 through +25), pcDNA3-21m-SEAP, was tested in transient transfection experiments of HeLa cells. […] All data summarized in Tables 4 through 7 were obtained by normalizing the total amount of transfected DNA to 2.1 μg using a promoterless plasmid.

[2] = tested on: HDAC activity (acetylated histone H3); assay: Acetylation of core histones (inhibition of HDAC activity) in HeLa cells, acetylated histone H3 immunoblot; settings: Homo sapiens, HeLa, 13 h, read-out: AcH3 EC50
Method: (§1) Induction of endogenous p21 and acetylation of core histones (inhibition of HDAC activity) was as follows. Dose-response experiments were performed in HeLa cells with different classes of known HDAC inhibitors. […] An α-tubulin-specific antibody (Sigma, St. Louis, Mo.; catalog number: T9026) was used as an internal standard. Quantitative data were obtained by densitometric analysis of X-ray films and were normalized for the internal standard values.

[3] = tested on: endogenous p21; assay: Induction of endogenous p21 in HeLa cells, immunoblot; settings: Homo sapiens, 13 hour treatment, immunoblot densitometry, read-out: Endogenous p2 EC50
Method: as §1

[4] = tested on: CMV promoter; assay: Luc activity of co-transfected pCMV-Luc control plasmid in HeLa cells; settings: TSA 300 nM, Apicidin 1 μM; for RLU/mg / Fold Ind. RLU: Table 3; for Fold Ind. RLU: vs DMSO; for RLU norm mean / RLU/μg: Table 5; for RLU/μg: luciferase control plasmid not named
[5] = tested on: p21 minimal promoter; assay: Fluorometric β-lactamase activity assay in stable HeLa clone 1.17 (p21m-BLA)
Method: All clones were screened for the presence of stably and functional integrated copies of the p21m-BLA reporter gene transcription cassette by performing a fluorometric β-lactamase activity assay after treatment with the HDAC inhibitor Apicidin at a concentration of 1 μM (saturating dose representing 100% of Bla gene activation, i.e., 100% of HDAC inhibition). A 100 μL aliquot of cells for each stable transformant in complete DMEM was plated into a well of a 96 well plate at about 36,000 cells per well for treatment with 1 μM Apicidin (saturating dose) and a 100 μL aliquot of cells was plated into a well of a 96 well plate at 24,000 cells per well for treatment with DMSO (vehicle control). […] After 4 hours, 25 μL of complete DMEM containing Apicidin at 5× final concentration or DMSO (5%) was added to each of the wells. The cells were then grown at 37° C., 5% CO2 for about 12 to 16 hours. Afterwards, the medium was removed and 100 μL of DMEM without serum and 25 μL of FRET labeled CCF2-AM Bla substrate diluted in the appropriate buffer according to the manufacturer recommendations were each added to the cells to give a final concentration of 1 μM CCF2-AM.

[6] = tested on: CMV promoter; assay: Transient transfection of HeLa cells with CMV-BLA (pCMV-BLA) reporter plasmid, Bla staining (blue cells); settings: Apicidin 1 μM; for % Blue cells: Table 3, 2 μg pCMV-BLA + 0.1 μg pCMV-Luc, TSA 300 nM; for Bla staining at 60 min. / fold-ind. at 60 min. (Bla): Table 6; for fold-ind. at 60 min. (Bla): vs DMSO
Method: The p21m-BLA reporter plasmid was tested in transient transfection experiments of HeLa cells to evaluate the responsiveness of the minimal p21 promoter and the Bla reporter system to known HDAC inhibitors. In the first two transfection experiments, HeLa cells were transfected with 1 or 2 μg of Bla reporter plasmid containing either p21 minimal promoter (p21m-BLA) or CMV promoter (CMV-BLA) and 0.1 μg of pCMV-Luc or pRSV-Luc control plasmids. Different DNA-FUGENE transfection reagent ratios were tested (FUGENE is available from Roche Applied Science, Indianapolis, Ind.). […] Data are summarized below in Tables 1 and 2.
The percentage of β-lactamase-positive cells increased with time independent of the presence of HDAC inhibitors and was constantly higher with p21m-BLA than with pCMV-BLA.
In light of the above, the lack of apparent Bla activation in the above transfection experiments might have been due to the high sensitivity of the method. Therefore, transient transfections in which an accurate titration of the reporter plasmid DNA were performed. The titration of the reporter plasmid included using amounts lower than was used above. […] The transient transfections were repeated and the result confirmed (Table 7).

Q: How did the “SEAP (10 min)” value ([1]; P21m-SEAP 2 μg DNA (total DNA 2.1 μg)) turn out when `CCC(=O)CCCCC[C@@H]1NC(=O)[C@H]2CCCCN2C(=O)[C@H]([C@@H](C)CC)NC(=O)[C@H](Cc2cn(OC)c3ccccc23)NC1=O` [Apicidin] was run?
A: 108562

Q: And the “SEAP (fold ind)” value ([1]; P21m-SEAP 2 μg DNA, vs DMSO)?
A: 4.5 fold

Q: And the “SEAP norm.-bckg/RLU norm (fold ind)” value ([1]; P21m-SEAP 2 μg DNA, vs DMSO)?
A: 17.3 fold

Q: And the EC50 [2]?
A: 110 nM

Q: What about the EC50 [3] of the same molecule?
A: 70 nM

Q: And the RLU/mg ([4]; 2 μg p21m-BLA + 0.1 μg pCMV-Luc, 6 hr treatment)?
A: 79723 RLU/mg

Q: What about the “Fold Ind. RLU” value ([4]; 2 μg p21m-BLA + 0.1 μg pCMV-Luc, 6 hr) of the same molecule?
A: 3.6 fold

Q: What about the RLU/mg ([4]; 2 μg p21m-BLA + 0.1 μg pCMV-Luc, 12 hr treatment) of the same molecule?
A: 183519 RLU/mg

Q: And the “Fold Ind. RLU” value ([4]; 2 μg p21m-BLA + 0.1 μg pCMV-Luc, 12 hr)?
A: 2.45 fold

Q: And the RLU/mg ([4]; 2 μg p21m-BLA + 0.1 μg pCMV-Luc, 24 hr treatment)?
A: 131733 RLU/mg

Q: And the “Fold Ind. RLU” value ([4]; 2 μg p21m-BLA + 0.1 μg pCMV-Luc, 24 hr)?
A: 2.9 fold

Q: What about the RLU/mg ([4]; 2 μg pCMV-BLA + 0.1 μg pCMV-Luc, 6 hr treatment) of the same molecule?
A: 10937 RLU/mg

Q: And the “Fold Ind. RLU” value ([4]; 2 μg pCMV-BLA + 0.1 μg pCMV-Luc, 6 hr)?
A: 2 fold

Q: What about the RLU/mg ([4]; 2 μg pCMV-BLA + 0.1 μg pCMV-Luc, 12 hr treatment) of the same molecule?
A: 39603.5 RLU/mg

Q: What about the “Fold Ind. RLU” value ([4]; 2 μg pCMV-BLA + 0.1 μg pCMV-Luc, 12 hr) of the same molecule?
A: 3.6 fold

Q: What about the RLU/mg ([4]; 2 μg pCMV-BLA + 0.1 μg pCMV-Luc, 24 hr treatment) of the same molecule?
A: 18932.5 RLU/mg

Q: And the “Fold Ind. RLU” value ([4]; 2 μg pCMV-BLA + 0.1 μg pCMV-Luc, 24 hr)?
A: 5.3 fold

Q: What about the RLU norm mean ([4]; P21m-SEAP 0 μg DNA) of the same molecule?
A: 1.08

Q: What about the RLU/μg ([4]; P21m-SEAP 0 μg DNA) of the same molecule?
A: 102,236.00 RLU/μg

Q: And the RLU norm mean ([4]; P21m-SEAP 0.1 μg DNA)?
A: 1.17

Q: What about the RLU/μg ([4]; P21m-SEAP 0.1 μg DNA) of the same molecule?
A: 111,192.67 RLU/μg

Q: And the RLU norm mean ([4]; P21m-SEAP 0.2 μg DNA)?
A: 1.14

Q: And the RLU/μg ([4]; P21m-SEAP 0.2 μg DNA)?
A: 108,052.99 RLU/μg

Q: What about the RLU norm mean ([4]; P21m-SEAP 0.5 μg DNA) of the same molecule?
A: 0.57

Q: And the RLU/μg ([4]; P21m-SEAP 0.5 μg DNA)?
A: 54,363.72 RLU/μg

Q: And the RLU norm mean ([4]; P21m-SEAP 1 μg DNA)?
A: 1.14

Q: And the RLU/μg ([4]; P21m-SEAP 1 μg DNA)?
A: 108,153.75 RLU/μg

Q: What about the RLU norm mean ([4]; P21m-SEAP 2 μg DNA) of the same molecule?
A: 0.90

Q: What about the RLU/μg ([4]; P21m-SEAP 2 μg DNA) of the same molecule?
A: 85,172.59 RLU/μg

Q: And the EC50 ([5]; Homo sapiens, HeLa, 13 h, read-out: p21m-Bla EC50)?
A: 170 nM

Q: And the “induction over DMSO (slope analysis of β-lactamase activity)” value ([5]; clone 1.17, saturating amounts of Apicidin (1 μM))?
A: ~200 fold

Q: And the “% Blue cells” value ([6]; 6 hr treatment)?
A: 4%

Q: And the “% Blue cells” value ([6]; 12 hr treatment)?
A: 3%

Q: And the “% Blue cells” value ([6]; 24 hr treatment)?
A: 10%

Q: And the “Bla staining at 60 min.” value ([6]; pCMV-BLA 0 μg DNA)?
A: 0%

Q: What about the “Bla staining at 60 min.” value ([6]; pCMV-BLA 0.02 μg DNA) of the same molecule?
A: 5%

Q: And the “fold-ind. at 60 min. (Bla)” value ([6]; pCMV-BLA 0.02 μg DNA)?
A: 1 fold

Q: What about the “Bla staining at 60 min.” value ([6]; pCMV-BLA 0.05 μg DNA) of the same molecule?
A: 5-10%

Q: What about the “fold-ind. at 60 min. (Bla)” value ([6]; pCMV-BLA 0.05 μg DNA) of the same molecule?
A: 1 fold

Q: And the “Bla staining at 60 min.” value ([6]; pCMV-BLA 0.1 μg DNA)?
A: 10-15%

Q: And the “fold-ind. at 60 min. (Bla)” value ([6]; pCMV-BLA 0.1 μg DNA)?
A: 1 fold

Q: And the “Bla staining at 60 min.” value ([6]; pCMV-BLA 0.2 μg DNA)?
A: 20%

Q: And the “fold-ind. at 60 min. (Bla)” value ([6]; pCMV-BLA 0.2 μg DNA)?
A: 1 fold

Q: What about the “Bla staining at 60 min.” value ([6]; pCMV-BLA 0.5 μg DNA) of the same molecule?
A: 40%

Q: And the “fold-ind. at 60 min. (Bla)” value ([6]; pCMV-BLA 0.5 μg DNA)?
A: 1 fold
